Values after ≈ are worked out from the molar mass of the structure shown. Where two headings read alike, the source gives them in different places.
What was measured:
[1] = system: Proteus rettgeri A21203; assay: MIC, tube dilution, Proteus rettgeri A21203; type: cell-based; settings: overnight 37° C.; for MIC: Providencia rettgeri, A21203, Proteus rettgeri A21203, read-out: Minimum Inhibitory Concentration (M.I.C.)
Text: (§1) Representative compounds of the present invention were subjected to in vitro antibiotic screening against a variety of microorganisms.

[2] = system: Str. faecalis A-20688; assay: MIC, tube dilution, Streptococcus faecalis A20688; type: cell-based; settings: overnight 37° C.; for MIC: Enterococcus faecalis, A20688, Str. faecalis A20688, read-out: Minimum Inhibitory Concentration (M.I.C.)
Text: as §1

[3] = system: Staph. aureus (Pen-Res) A-9606; assay: MIC, tube dilution, Staphylococcus aureus A9606 (Pen-Res); type: cell-based; settings: Staph. aureus A9606 (Pen-Res), overnight 37° C.; for MIC: Staphylococcus aureus, read-out: Minimum Inhibitory Concentration (M.I.C.)
Text: as §1

[4] = system: Staph. aureus (Meth-Res) A-15097; assay: MIC, tube dilution, Staphylococcus aureus A15097 (Meth-Res); type: cell-based; settings: overnight 37° C.; for MIC: Staphylococcus aureus
Text: as §1

[5] = system: Pr. mirabilis A-9900; assay: MIC, tube dilution, Proteus mirabilis A9900; type: cell-based; settings: overnight 37° C.; for MIC: Proteus mirabilis, A9900, Proteus mirabilis A9900, read-out: Minimum Inhibitory Concentration (M.I.C.)
Text: as §1

[6] = system: S. aureus A9537; assay: In vivo protection of mice, lethal infection with S. aureus A9537; settings: IM, 2 treatments; for ED50: Staphylococcus aureus, A9537, im, read-out: PD50
Description: Representative compounds of the present invention were also tested in vivo in mice and their PD50 (dose of compound in mg/kg required to protect 50% of the treated mice against an otherwise lethal infection of a micro-organism) values determined with respect to the test organisms shown below.

[7] = system: Klebsiella species A20468; assay: MIC, tube dilution, Klebsiella species A20468; type: cell-based; settings: Klebsiella species (K. pneumoniae) A20468, overnight 37° C.; for MIC: read-out: Minimum Inhibitory Concentration (M.I.C.)
Text: as §1

[8] = system: Ent. cloacae A-9659; assay: MIC, tube dilution, Enterobacter cloacae A9659; type: cell-based; settings: overnight 37° C.; for MIC: Enterobacter cloacae, A9659, Enterobacter cloacae A9659, read-out: Minimum Inhibitory Concentration (M.I.C.)
Text: as §1

[9] = system: Ser. marcescens A-20019; assay: MIC, tube dilution, Serratia marcescens A20019; type: cell-based; settings: overnight 37° C.; for MIC: Serratia marcescens, A20019, Serratia marcescens A20019, read-out: Minimum Inhibitory Concentration (M.I.C.)
Text: as §1

[10] = system: E. coli A-15119; assay: MIC, tube dilution, Escherichia coli A15119; type: cell-based; settings: overnight 37° C.; for MIC: Escherichia coli, A15119, E. coli A15119, read-out: Minimum Inhibitory Concentration (M.I.C.)
Text: as §1

[11] = system: Ps. aeruginosa A-21213; assay: MIC, tube dilution, Pseudomonas aeruginosa A21213; type: cell-based; settings: overnight 37° C.; for MIC: read-out: Minimum Inhibitory Concentration (M.I.C.)
Text: as §1

[12] = system: Staph. aureus A-9537; assay: MIC, tube dilution, Staphylococcus aureus A9537; type: cell-based; settings: overnight 37° C., Nutrient Broth; for MIC: Staphylococcus aureus, A9537, Staph. aureus A9537, read-out: Minimum Inhibitory Concentration (M.I.C.)
Text: as §1

[13] = system: K. pneumoniae A-15130; assay: MIC, tube dilution, Klebsiella pneumoniae A15130; type: cell-based; settings: overnight 37° C.; for MIC: Klebsiella pneumoniae, A15130, K. pneumoniae A15130, read-out: Minimum Inhibitory Concentration (M.I.C.)
Text: as §1

[14] = system: Staph. aureus A-9537 and 50% serum; assay: MIC, tube dilution, Staph. aureus A9537 + 50% serum; type: cell-based, Staphylococcus aureus; settings: overnight 37° C.; for MIC: Staphylococcus aureus, read-out: Minimum Inhibitory Concentration (M.I.C.)
Text: as §1

[15] = system: Str. pyogenes A-9604; assay: MIC, tube dilution, Streptococcus pyogenes A9604; type: cell-based; settings: overnight 37° C., Nutrient Broth; for MIC: Streptococcus pyogenes, A9604, Str. pyogenes A9604, read-out: Minimum Inhibitory Concentration (M.I.C.)
Text: as §1

[16] = system: Ent. cloacae A-9656; assay: MIC, tube dilution, Enterobacter cloacae A9656; type: cell-based; settings: overnight 37° C.; for MIC: read-out: Minimum Inhibitory Concentration (M.I.C.)
Text: as §1

[17] = system: Str. pneumoniae A-9585; assay: MIC, tube dilution, Streptococcus pneumoniae A9585; type: cell-based; settings: overnight 37° C., Nutrient Broth; for MIC: Streptococcus pneumoniae, A9585, Str. pneumoniae A9585, read-out: Minimum Inhibitory Concentration (M.I.C.)
Text: as §1

[18] = system: Pr. morganii A-15153; assay: MIC, tube dilution, Proteus morganii A15153; type: cell-based; settings: overnight 37° C.; for MIC: Morganella morganii, A15153, Proteus morganii A15153, read-out: Minimum Inhibitory Concentration (M.I.C.)
Text: as §1

[19] = system: Ps. aeruginosa A-9843A; assay: MIC, tube dilution, Pseudomonas aeruginosa A9843A; type: cell-based; settings: overnight 37° C.; for MIC: Pseudomonas aeruginosa, A9843A, read-out: Minimum Inhibitory Concentration (M.I.C.), Pseudomonas aeruginosa A9843A
Text: as §1

[20] = system: E. coli A-20341-1; assay: MIC, tube dilution, Escherichia coli A20341-1; type: cell-based
Text: as §1

[21] = system: Proteus vulgaris A21559; assay: MIC, tube dilution, Proteus vulgaris A21559; type: cell-based; settings: overnight 37° C.; for MIC: Proteus vulgaris, A21559, Proteus vulgaris A21559, read-out: Minimum Inhibitory Concentration (M.I.C.)
Text: as §1

[22] = read-out: Minimum Inhibitory Concentration (M.I.C.), Staph. aureus A15097 (Meth-Res)
[23] = Enterobacter cloacae, A9656, Enterobacter cloacae A9656
[24] = Escherichia coli, A203411, E. coli A20341-1; overnight 37° C.; read-out: Minimum Inhibitory Concentration (M.I.C.)

NC1CCC(C2=C(C(=O)O)N3C(=O)C[C@H]3S2)C1 (single isomer, unassigned) [98 isomer B, 2-(3-Aminocyclopentyl)-penem-3-carboxylic acid]
Minimum Inhibitory Concentration (M.I.C.) ([1]; Proteus rettgeri A21203): 1 µg/mL
Minimum Inhibitory Concentration (M.I.C.) ([2]; Str. faecalis A20688): 8 µg/mL
Minimum Inhibitory Concentration (M.I.C.) [3]: > 63 µg/mL
Minimum Inhibitory Concentration (M.I.C.) ([4]; Staph. aureus A15097 (Meth-Res)): > 63 µg/mL
Minimum Inhibitory Concentration (M.I.C.) ([5]; Proteus mirabilis A9900): 1 µg/mL
PD50 ([6]; 9.1 × 10^5 organisms, listed as Ex. 98 (isomer B)): 0.12 mg/kg/treatment
Minimum Inhibitory Concentration (M.I.C.) [7]: > 63 µg/mL
Minimum Inhibitory Concentration (M.I.C.) ([8]; Enterobacter cloacae A9659): 8 µg/mL
Minimum Inhibitory Concentration (M.I.C.) ([9]; Serratia marcescens A20019): 2 µg/mL
Minimum Inhibitory Concentration (M.I.C.) ([10]; E. coli A15119): 1 µg/mL
Minimum Inhibitory Concentration (M.I.C.) ([11]; Pseudomonas aeruginosa A21213): > 63 µg/mL
Minimum Inhibitory Concentration (M.I.C.) ([12]; Staph. aureus A9537): .03 µg/mL
Minimum Inhibitory Concentration (M.I.C.) ([13]; K. pneumoniae A15130): 4 µg/mL
Minimum Inhibitory Concentration (M.I.C.) [14]: .25 µg/mL
Minimum Inhibitory Concentration (M.I.C.) ([15]; Str. pyogenes A9604): .008 µg/mL
Minimum Inhibitory Concentration (M.I.C.) ([16]; Enterobacter cloacae A9656): 2 µg/mL
Minimum Inhibitory Concentration (M.I.C.) ([17]; Str. pneumoniae A9585): .008 µg/mL
Minimum Inhibitory Concentration (M.I.C.) ([18]; Proteus morganii A15153): 4 µg/mL
Minimum Inhibitory Concentration (M.I.C.) ([19]; Pseudomonas aeruginosa A9843A): 63 µg/mL
Minimum Inhibitory Concentration (M.I.C.) ([20]; E. coli A20341-1; overnight 37° C.): 16 µg/mL
Minimum Inhibitory Concentration (M.I.C.) ([21]; Proteus vulgaris A21559): 8 µg/mL

CC1(C)OCC(C(N)C2=C(C(=O)O)N3C(=O)CC3S2)O1 [Example 84, (1'R,2'R,5R and 1'S,2'S,5S),(1'R,2'R,5S and 1'S,2'S,5R), (1'R,2'S,5S and 1'S,2'R,5R), (1'R,2'S,5R and 1'S,2'R,5S) 2-(1'-Amino-2,3-dihydroxy-2,3-acetonylpropyl)-penem-3-carboxylic Acid]
MIC [1]: 32 µg/mL (≈ 107 µM)
MIC [2]: > 125 µg/mL
MIC [3]: 16 µg/mL (≈ 53.3 µM)
MIC [4, 22]: > 125 µg/mL
MIC [5]: 8 µg/mL (≈ 26.6 µM)
ED50 ([6]; 1 × 10^6 organisms): 33 mg/kg
MIC [7]: > 125 µg/mL
MIC [8]: 125 µg/mL (≈ 416 µM)
MIC [9]: 63 µg/mL (≈ 210 µM)
MIC [10]: 16 µg/mL (≈ 53.3 µM)
MIC ([11]; Pseudomonas aeruginosa A21213): > 125 µg/mL
MIC [12]: 4 µg/mL (≈ 13.3 µM)
MIC [13]: 125 µg/mL (≈ 416 µM)
MIC [14]: 32 µg/mL
MIC [15]: 1 µg/mL (≈ 3.33 µM)
MIC ([16]; Enterobacter cloacae A9656): 125 µg/mL (≈ 416 µM)
MIC [17]: 1 µg/mL (≈ 3.33 µM)
MIC [18]: 16 µg/mL (≈ 53.3 µM)
MIC [19]: > 125 µg/mL
MIC ([20]; Escherichia coli, A203411; E. coli A20341-1; overnight 37° C.; read-out: Minimum Inhibitory Concentration (M.I.C.)): > 125 µg/mL
MIC [21]: 63 µg/mL (≈ 210 µM)

CC(N)CCC1=C(C(=O)O)N2C(=O)C[C@H]2S1 (stereo partly drawn) [Example 80, 2-(3'-Aminobutyl)-penem-3-carboxylic Acid]
MIC [1]: 8 µg/mL (≈ 33 µM)
MIC [2]: 16 µg/mL (≈ 66 µM)
MIC [3]: 0.5 µg/mL (≈ 2.06 µM)
MIC ([4]; Staph. aureus A15097 (Meth-Res), read-out: Minimum Inhibitory Concentration (M.I.C.)): > 63 µg/mL
MIC [5]: 4 µg/mL (≈ 16.5 µM)
ED50 ([6]; 8 × 10^5 organisms): 0.6 mg/kg
MIC [7]: > 63 µg/mL
MIC [8]: 16 µg/mL (≈ 66 µM)
MIC [9]: 8 µg/mL (≈ 33 µM)
MIC [10]: 4 µg/mL (≈ 16.5 µM)
MIC ([11]; Pseudomonas aeruginosa, A21213, Pseudomonas aeruginosa A21213): > 63 µg/mL
MIC [12]: 0.06 µg/mL (≈ 0.248 µM)
MIC [13]: 8 µg/mL (≈ 33 µM)
MIC [14]: 0.25 µg/mL
MIC [15]: 0.06 µg/mL (≈ 0.248 µM)
MIC [16, 23]: 8 µg/mL (≈ 33 µM)
MIC [17]: 0.03 µg/mL (≈ 0.124 µM)
MIC [18]: 16 µg/mL (≈ 66 µM)
MIC [19]: 63 µg/mL (≈ 260 µM)
MIC [20, 24]: 8 µg/mL (≈ 33 µM)
MIC [21]: 8 µg/mL (≈ 33 µM)

O=C(O)C1=C(CCC[N+](=O)[O-])SC2CC(=O)N12 (stereo not drawn) [Example 91, 2-(3'-Nitropropyl)-penem-3-carboxylic Acid]
MIC [1]: 2 µg/mL (≈ 7.74 µM)
MIC [2]: 63 µg/mL (≈ 244 µM)
MIC [3]: 32 µg/mL (≈ 124 µM)
MIC [4, 22]: > 125 µg/mL
MIC [5]: 1 µg/mL (≈ 3.87 µM)
ED50 ([6]; 9.1 × 10^5 organisms): 9.6 mg/kg
MIC [7]: > 125 µg/mL
MIC [8]: 4 µg/mL (≈ 15.5 µM)
MIC [9]: 4 µg/mL (≈ 15.5 µM)
MIC [10]: 1 µg/mL (≈ 3.87 µM)
MIC ([11]; Pseudomonas aeruginosa A21213): 125 µg/mL (≈ 484 µM)
MIC [12]: 0.25 µg/mL (≈ 0.968 µM)
MIC [13]: 16 µg/mL (≈ 62 µM)
MIC [14]: 16 µg/mL
MIC [15]: 0.25 µg/mL (≈ 0.968 µM)
MIC [16, 23]: 2 µg/mL (≈ 7.74 µM)
MIC [17]: 0.25 µg/mL (≈ 0.968 µM)
MIC [18]: 4 µg/mL (≈ 15.5 µM)
MIC [19]: 125 µg/mL (≈ 484 µM)
MIC [20, 24]: 63 µg/mL (≈ 244 µM)
MIC [21]: 8 µg/mL (≈ 31 µM)
